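Growth conditions: 96-well plates. Treatment: test compound, 48 hours, 5 concentrations. Analysis: linear interpolation between bracketing concentrations; unreached endpoints set to highest concentration. GI50 is the concentration that inhibits growth by half.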 Calls of active or inactive are those of the source. No stated cut-off is given here; in the data, active = GI50 up to about 1.1 µM and inactive = higher. A value given as a limit tells only on which side of the number the result lay.

Common to all, as to test: growth of human tumour cells (NCI), 48 h
Assay [1] deals with OVCAR-8.
In assay [2] the test system is OVCAR-4.
The test system of assay [3] is 786-0.
The test system of assay [4] is A498.
The test system of assay [5] is RPMI-8226.
The subject of assay [6] is HT-29.
The subject of assay [7] is MCF7.
Assay [8] concerns MOLT-4.
The test system of assay [9] is HCT-116.
In assay [10] the test system is BT-549.
For assay [11], the system named is NCI-H522.
For assay [12], the system named is NCI-H226.
Assay [13] relates to U-251.
Assay [14] deals with SNB-75.
For assay [15], the system named is TK-10.
Assay [16] deals with EKVX.
Assay [17] concerns NCI-H23.
For assay [18], the system named is CAKI-1.
Assay [19] concerns IGROV-1.
For assay [20], the system named is SK-MEL-28.

`C/C1=C/C2=CC(C)C[C@@H]2C(=O)[C@]2(C)C(=O)CC(C)(C)[C@H]2CC1=O` (stereo partly drawn): the GI50 in assay [1] is > 50 µM (inactive); in assay [2], > 50 µM (inactive); in assay [3], > 50 µM (inactive); in assay [4] it was > 50 µM (inactive); in [5], 34.8 µM (inactive); in [6] it was > 50 µM (inactive). The GI50 in assay [7], in [8], in assay [9], in assay [10], in assay [11] and in [12] was > 50 µM (inactive) each time. Besides, the GI50 in [13], in assay [14], in assay [15], in assay [16], in assay [17] and in [18] was > 50 µM (inactive) each time. Moreover, the GI50 in assay [19] is > 50 µM (inactive).

`Cc1c(OCc2cccc3ccccc23)ccc2c(O)cc(=S)oc12`: the GI50 in assay [1] is 60.4 µM (inactive); in [2] it was 29 µM (inactive); in [3], 41.8 µM (inactive); in assay [4], 82.2 µM (inactive); in assay [6], 38.2 µM (inactive); in [7], 45.7 µM (inactive). The GI50 in assay [8] was 32 µM (inactive); in [9] it was 26.7 µM (inactive); in assay [20], 43.6 µM (inactive); in assay [10], 30.9 µM (inactive); in assay [11] it was 23.4 µM (inactive); in [12], 39.5 µM (inactive). The GI50 in [13] was 35.6 µM (inactive); in assay [14], 40.9 µM (inactive); in [15] it was 56.5 µM (inactive); in assay [16], 44.1 µM (inactive); in assay [17], 25.7 µM (inactive); in assay [18], 43 µM (inactive). Besides, the GI50 in [19] is 42.6 µM (inactive).

As to `NC(=O)c1csc(C2(O)COC(CO)C2O)n1` (stereo not drawn), the GI50 in assay [1], in [2], in assay [3], in assay [4], in [5] and in assay [6] was > 100 µM (inactive) throughout. Further, the GI50 in assay [7], in assay [9], in assay [20], in assay [10], in assay [11] and in assay [12] was > 100 µM (inactive) in each case. Moreover, the GI50 in assay [13], in assay [14], in assay [15], in assay [16], in assay [17] and in assay [18] was > 100 µM (inactive) in each case. Moreover, the GI50 in assay [19] was > 100 µM (inactive).

`COc1ccc(/C=c2/[nH]c(=O)/c(=C\c3ccc(OCc4ccccc4)cn3)[nH]c2=O)cc1`: the GI50 in assay [1] was 98.2 µM (inactive); in [2], > 100 µM (inactive); in [3] it was 49.9 µM (inactive); in assay [4] it was 33 µM (inactive); in assay [6], 50.5 µM (inactive); in [7], 46 µM (inactive). In addition, the GI50 in assay [8] is 43.6 µM (inactive); in assay [9], 48 µM (inactive); in assay [20], > 100 µM (inactive); in assay [10] it was 45.3 µM (inactive); in assay [11] it was 71.4 µM (inactive); in assay [12] it was 67.9 µM (inactive). Besides, the GI50 is 40.6 µM (inactive) in [13]; 19.3 µM (inactive) in assay [14]; 71.9 µM (inactive) in [15]; > 100 µM (inactive) in [16]; > 100 µM (inactive) in [17]; > 100 µM (inactive) in assay [18].

Consider `O=C1CCCC1CC(CN1CCOCC1)Sc1nnnn1-c1ccccc1` (stereo not drawn), for which the GI50 in assay [1] is > 100 µM (inactive); in assay [2] it was > 100 µM (inactive); in assay [3] it was > 100 µM (inactive); in assay [4], > 100 µM (inactive); in [5], 42.1 µM (inactive); in assay [6], 31 µM (inactive). Moreover, the GI50 was 18.2 µM (inactive) in [7]; > 100 µM (inactive) in assay [8]; > 100 µM (inactive) in assay [9]; > 100 µM (inactive) in assay [20]; > 100 µM (inactive) in assay [10]; > 100 µM (inactive) in [11]. In addition, the GI50 in [12] was > 100 µM (inactive); in [13], > 100 µM (inactive); in assay [14] it was 21.3 µM (inactive); in [16], 28.9 µM (inactive); in assay [17] it was > 100 µM (inactive); in assay [18], 16.8 µM (inactive). Besides, in [19], the GI50 is > 100 µM (inactive).

On to `Fc1ccc(C(OCCN2CCN(CCCCl)CC2)c2ccc(F)cc2)cc1`, for which the GI50 in assay [1] is 27.5 µM (inactive); in assay [2], 24.9 µM (inactive); in assay [3] it was 28.4 µM (inactive); in [4] it was 20.9 µM (inactive); in assay [5], 20.8 µM (inactive); in assay [6], 17 µM (inactive). In addition, the GI50 in assay [7] is 21.6 µM (inactive); in [8], 19.9 µM (inactive); in assay [9] it was 19.5 µM (inactive); in [20], 38.4 µM (inactive); in [10] it was 18.6 µM (inactive); in [11] it was 18.7 µM (inactive). Further, the GI50 was 20.5 µM (inactive) in [12]; 41 µM (inactive) in assay [13]; 36.7 µM (inactive) in assay [15]; 41.1 µM (inactive) in assay [16]; 22.3 µM (inactive) in [17]; 31 µM (inactive) in assay [18]. In assay [19], the GI50 was 26 µM (inactive).

As for `CCC(c1nc2ccccc2c(=O)n1NC(=O)C(C)(C)C)C1(O)CCCCC1` (stereo not drawn), the GI50 in [1], in assay [2], in [3], in assay [4], in [5] and in [6] was > 100 µM (inactive) in each case. The GI50 in assay [7] is > 100 µM (inactive); in [8] it was 80.4 µM (inactive); in [9], > 100 µM (inactive); in [20], > 100 µM (inactive); in assay [10] it was > 100 µM (inactive); in assay [11], 67.8 µM (inactive). Moreover, the GI50 in [12], in [13], in [14], in assay [16], in assay [17] and in assay [18] was > 100 µM (inactive) in each case. Moreover, the GI50 in assay [19] was > 100 µM (inactive).

For the molecule `C=C(CCOC)CCC1CCCCC(CN(C)C)C1=O` (stereo not drawn), the GI50 in assay [1], in assay [2], in [3], in assay [4], in assay [5] and in assay [6] was > 100 µM (inactive) in each case. The GI50 in assay [7], in [8], in assay [9], in [20], in assay [10] and in assay [11] was > 100 µM (inactive) throughout. In addition, the GI50 in [12], in [13], in assay [14], in assay [16], in [17] and in assay [18] was > 100 µM (inactive) each time. In [19], the GI50 is > 100 µM (inactive).

On to `COc1cc(C2c3cc4c(cc3[C@H](NC(=O)c3cccs3)C3COC(=O)[C@H]23)OCO4)cc(OC)c1OC` (stereo partly drawn), for which the GI50 in [1] was < 0.01 µM (active); in assay [3] it was < 0.0221 µM (active); in assay [4] it was 0.012 µM (active); in [5], 0.0134 µM (active); in [6], 0.012 µM (active); in [7], < 0.01 µM (active). The GI50 is < 0.0149 µM (active) in assay [8]; < 0.0131 µM (active) in assay [9]; 0.0708 µM (active) in assay [20]; < 0.01 µM (active) in assay [10]; < 0.01 µM (active) in assay [11]; 0.668 µM (active) in assay [12]. For the same molecule, the GI50 is < 0.0148 µM (active) in assay [13]; < 0.0152 µM (active) in assay [14]; > 40.9 µM (inactive) in [15]; 0.0731 µM (active) in assay [16]; < 0.0143 µM (active) in assay [17]; 0.0147 µM (active) in [19].

As to `O=c1c(C(c2cccnc2)c2c(O)oc3cc(O)ccc3c2=O)c(O)oc2cc(O)ccc12`, the GI50 in assay [1], in assay [3], in assay [4], in assay [5], in assay [6] and in assay [7] was > 100 µM (inactive) each time. Also, the GI50 in assay [8], in [9], in [20], in assay [10], in assay [11] and in assay [12] was > 100 µM (inactive) each time. Besides, the GI50 in assay [13], in [14], in assay [15], in assay [16], in assay [17] and in [18] was > 100 µM (inactive) in each case. Besides, the GI50 in assay [19] is > 100 µM (inactive).
